From publication PMC11648675 (Cell, 2024) come the findings set out here.

Where a SMILES comes first, the peptide text is derived from it. The star is where a group is joined. CH2Cl = ClC*

The test system of one data set is EMT6 cells. The experiment in a line: cell death of EMT6 cells in vitro. The data set is classed as cell-based, mouse. The conditions noted are these: for cell death at concentration used for vaccination: 60 μM; for LDH release: WT EMT6 cells; for potency at killing WT EMT6 cells: cell-titer Glo assay, in vitro.
The subject of another data set is EMT6 tumors in NSG mice. The experiment in a line: EMT6 tumors in NSG mice. In kind it is in vivo, mouse. The conditions noted are these: NSG mice lacking functional lymphocytes.
The target of another data set is recombinant caspase-1 (Homo sapiens, UniProt P29466). The experiment in a line: Caspase-1 activity assay. In kind it is biochemical. The conditions noted are these: in vitro, DMB 10 μM, Z-YVAD-AFC substrate.
recombinant caspase-1, sequence (P29466 120-297 limits assumed, species assumed): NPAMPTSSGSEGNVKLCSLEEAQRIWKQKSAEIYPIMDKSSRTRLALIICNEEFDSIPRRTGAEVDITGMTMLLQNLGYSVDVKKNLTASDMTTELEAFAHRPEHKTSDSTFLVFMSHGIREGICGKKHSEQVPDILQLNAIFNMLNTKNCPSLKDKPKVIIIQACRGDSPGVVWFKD
recombinant caspase-1, sequence (P29466 317-404 limits assumed, species assumed): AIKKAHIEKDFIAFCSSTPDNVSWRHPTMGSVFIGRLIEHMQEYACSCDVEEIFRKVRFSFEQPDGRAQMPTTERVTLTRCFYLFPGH
The test system of data set [1] is KP lung adenocarcinoma tumors. The experiment in a line: subcutaneous KP tumors in WT and Gsdmd−/− C57BL/6 mice. In kind it is in vivo, mouse.
In data set [2] the test system is B16 cells expressing human GSDMD-GFP.
The next data set relates to mouse GSDMD. The experiment in a line: liposome leakage assay with mouse GSDMD. In kind it is biochemical.
Data set [3] deals with T1, Human GSDMD (Homo sapiens, UniProt P57764). The experiment in a line: time-resolved fluorogenic. In kind it is biochemical. To be noted: read-out: EC50 of liposome leakage; human GSDMD 0.3 μM, Tb3+/DPA fluorescence.
T1 sequence (P57764 whole entry): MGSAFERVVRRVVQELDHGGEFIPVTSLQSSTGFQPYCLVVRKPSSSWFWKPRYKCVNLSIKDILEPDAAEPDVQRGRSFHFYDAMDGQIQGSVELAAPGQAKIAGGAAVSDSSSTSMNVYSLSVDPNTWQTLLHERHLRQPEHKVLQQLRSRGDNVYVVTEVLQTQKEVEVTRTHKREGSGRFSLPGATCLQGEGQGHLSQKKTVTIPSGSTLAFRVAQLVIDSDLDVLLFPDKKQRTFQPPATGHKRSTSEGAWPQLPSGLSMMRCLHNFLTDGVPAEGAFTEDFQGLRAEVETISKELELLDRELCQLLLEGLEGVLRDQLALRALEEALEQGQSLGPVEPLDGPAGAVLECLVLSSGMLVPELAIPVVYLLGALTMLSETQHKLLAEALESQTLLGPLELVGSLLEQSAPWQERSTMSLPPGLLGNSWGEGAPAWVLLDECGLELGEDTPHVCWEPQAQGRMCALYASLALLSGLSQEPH
The subject of data set [4] is human peripheral blood mononuclear cells (PBMCs). The experiment in a line: cell death of human PBMCs. The data set is classed as cell-based.
The test system of a further data set is THP-1 cells. The experiment in a line: cell death of WT THP-1 cells by PI uptake. In kind it is cell-based, human.
A further data set relates to 4T1E tumors. The experiment in a line: orthotopic 4T1E tumors in BALB/c mice, DMB and anti-PD-1. The data set is classed as in vivo, mouse. The conditions noted are these: DMB 1 mg/kg weekly; anti-PD-1 every 2 days.
The subject of data set [5] is Gsdmd−/− and Gsdmd−/−Gsdme−/− EMT6 tumors. The experiment in a line: orthotopic gasdermin-KO EMT6 tumors in BALB/c mice. The conditions noted are these: 10 mg/kg weekly. The data set is classed as in vivo, mouse.
Data set [6] concerns immortalized mouse BMDMs (iBMDMs). The experiment in a line: cell death of immortalized mouse BMDMs. The conditions noted are these: WT iBMDMs, 5 and 20 μM; not affected by caspase-1/11 ablation. In kind it is cell-based.
Data set [7] deals with human GSDMA, GSDMB, GSDMC, GSDME. The experiment in a line: liposome leakage assay with other human gasdermins. In kind it is biochemical. The conditions noted are these: gasdermins 0.3 μM.
The test system of data set [8] is full-length GSDMD in HEK293T cells. The experiment in a line: activation of full-length GSDMD in transfected HEK293T cells. The data set is classed as cell-based, human.
Another data set relates to WT EMT6 tumors. The experiment in a line: orthotopic WT EMT6 tumors in BALB/c mice. In kind it is in vivo, mouse.
Another data set deals with NLRP3. The experiment in a line: NLRP3 activation in LPS-primed THP-1 cells. In kind it is cell-based, human. To be noted: treatment after LPS priming.
Data set [9] in a line: toxicity readouts in treated tumor-bearing mice. In kind it is in vivo, mouse.
Data set [10] relates to GSDMD knockout (KO) THP-1 cells. The experiment in a line: cell death of GSDMD KO THP-1 cells by PI uptake. The data set is classed as cell-based, human. The conditions noted are these: 5 or 20 μM.
The next data set concerns the target C38A GSDMD (Homo sapiens, UniProt P57764, C38A). The experiment in a line: liposome leakage assay with C38A GSDMD. The data set is classed as biochemical. The conditions noted are these: read-out: EC50 for activating GSDMD pore formation.
Another data set deals with EMT6 tumor challenge. The experiment in a line: vaccination with drug-treated EMT6 cells and EMT6 challenge. In kind it is in vivo, mouse. The conditions noted are these: for mice remaining tumor-free after challenge: immunization with drug-treated EMT6 cells, challenge 8 days later.
Data set [11] relates to primary mouse bone-marrow-derived macrophages (BMDMs). The experiment in a line: cell death of primary mouse BMDMs. The data set is classed as cell-based. The conditions noted are these: WT and GSDMD KO primary BMDMs.
In data set [12] the test system is Human GSDMD-GFP-expressing B16 cells. The experiment in a line: pyroptosis of B16-GSDMD-GFP cells in vitro by PI uptake. In kind it is cell-based, mouse. The conditions noted are these: 10 μM DMB.
Data set [13] deals with T1, Human GSDMD. The experiment in a line: microscale thermophoresis. The data set is classed as binding. The conditions noted are these: read-out: dissociation constant (KD) by MST; Alexa 647-labeled GSDMD.
Data set [14] deals with GSDMD KO THP-1 cells reconstituted with WT or D275A GSDMD. The experiment in a line: PI uptake in GSDMD KO THP-1 cells reconstituted with WT or D275A GSDMD. In kind it is cell-based, human. To be noted: 5 or 20 μM, 1, 2 and 4 h.
The target in data set [15] is mCherry-tagged full-length GSDMD (Homo sapiens, UniProt P57764). The experiment in a line: membrane localization of mCherry-tagged full-length GSDMD in HEK293T cells. In kind it is cell-based. The conditions noted are these: increasing concentrations of DMB.
mCherry-tagged full-length GSDMD, sequence (P57764 whole entry): as above
For data set [16], the target named is GSDMD (YFP at N terminus, RLuc at C terminus) (Homo sapiens, UniProt P57764). The experiment in a line: BRET assay of GSDMD NT-CT distance. In kind it is cell-based.
GSDMD (YFP at N terminus, RLuc at C terminus), sequence (P57764 whole entry): as above
In a further data set the test system is CT26 colorectal cancer. The experiment in a line: subcutaneous CT26 tumors in syngeneic mice. In kind it is in vivo, mouse. The conditions noted are these: 10 mg/kg.
The target of the next data set is C191A GSDMD (Homo sapiens, UniProt P57764, C191A). The experiment in a line: liposome leakage assay with C191A GSDMD. In kind it is biochemical.
C191A GSDMD, sequence (P57764 whole entry C191A): as the sequence (P57764 whole entry) above, with C191A counted along it
Data set [17] relates to B16 cells that expressed GFP. The experiment in a line: subcutaneous B16-GFP tumors in syngeneic mice. The conditions noted are these: 10 mg/kg every 3 days x6. In kind it is in vivo, mouse.
[18] abbreviates: 10 mg/kg i.p. every 3 days x6 from day 5.

C38A GSDMD, sequence (P57764 whole entry C38A): as the sequence (P57764 whole entry) above, with C38A counted along it

For `CC(=O)N[C@@H](Cc1ccccc1)C(=O)N[C@@H](CC(C)C)C(=O)N[C@H](C(=O)N[C@@H](CC(=O)O)C(=O)CCl)[C@@H](C)O` [AC-FLTD-CMK] (Ac-FLTD-CH2Cl), in the data set on EMT6 cells (EMT6 cells), the “effect of caspase inhibition on DMB-induced SYTOX Green uptake” value is reported as “did not affect DMB-induced pyroptosis”.

For the molecule `CC(C)(C)Nc1nc2cc(Cl)c(Cl)cc2nc1S(C)(=O)=O` [DMB, 6,7-dichloro-2-methylsulfonyl-3-N-tert-butylaminoquinoxaline], the tumor growth entry in the data set on EMT6 tumors in NSG mice is recorded as “did not suppress the growth”; in data set [1] it was “similarly inhibited”; in data set [2] (setting [18]) it was “strongly inhibited tumor growth”; in [5] (Gsdmd−/− EMT6), “not significantly reduced”; in data set [5] (Gsdmd−/−Gsdme−/− EMT6) it was “not significantly reduced”; with WT EMT6 tumors (10 mg/kg weekly for 2 weeks, WT EMT6) it was “significantly suppressed”. For the same molecule, the tumor growth entry is “A similar reduction in tumor growth” in the data set with CT26 colorectal cancer and “no significant effect” in data set [17]. The “effect on recombinant caspase-1 activity” value on recombinant caspase-1 is given as “neither inhibited nor activated”. Further, the “surviving mice cured with no palpable tumor” value in data set [2] (setting [18]) is 3. The “mice surviving to the end of the experiment” value in data set [2] (10 mg/kg i.p. every 3 days x6 from day 5, clones 9 and 10) was 5 of 16. Further, the “T cells per tumor area, DMB vs. vehicle” value in data set [2] (CD3+ CD8+ immunofluorescence) is recorded as 8.3 fold. Further, the “DCs per tumor area, DMB vs. vehicle” value in [2] (MHCII+ CD11c+ immunofluorescence) is given as 25.2 fold. For the same molecule, the “survival of mice bearing smaller tumors, delayed treatment” value in data set [2] (treatment from day 10, every 3 days x6) is recorded as “two of the four”. For the same molecule, in the data set with mouse GSDMD, the “fold reduced efficacy on mouse GSDMD vs human GSDMD” value is given as ~ 5 fold. Further, the EC50 was 700 nM at Human GSDMD [3]; 4800 ± 400 nM in the data set on THP-1 cells (read-out: EC50 of DMB-mediated cell death, WT THP-1, PI positivity at 4 h); roughly 900 nM at C38A GSDMD. Besides, the “induction of PI positivity, LDH release, ATP release” value in data set [4] is recorded as “robustly induced”. The “ATP release into supernatants” value with EMT6 cells (EMT6 cells) is “peaked 2 and 3 h”. Moreover, the “cell death at concentration used for vaccination” value in the data set on EMT6 cells (EMT6 cells, 5 h) is on record as 60–70%. Besides, the LDH release entry in the data set with EMT6 cells was “beginning within an hour of treatment”. Moreover, the “potency at killing WT EMT6 cells” value in the data set with EMT6 cells was “similarly potent”. In addition, the “cell death by PI uptake” value with THP-1 cells (WT THP-1 cells, 5 or 20 μM) was “induced significant cell death within 2 h”; in data set [10] it was “minimally”. For the same molecule, the “tumor growth / tumor volume vs vehicle” value in the data set on 4T1E tumors is reported as “does not inhibit tumor growth on its own”. Besides, the cell death result in [6] is given as “triggered cell death”. In [7], the “activation of other human gasdermins” value is recorded as “activated human GSDMD but not other human gasdermins”. In addition, in data set [8], the “activation of C191R and C191F full-length GSDMD mutants” value was “could not be activated”. In addition, the “GzmB/PFN expression and stimulated IFN-γ/TNF-α production of CD8+ and NK TILs” value in the data set on WT EMT6 tumors (10 mg/kg weekly, WT EMT6 tumors) is given as “significantly increased”. For the same molecule, in the data set with NLRP3, the “NLRP3 activation (ASC speck formation, IL-1β release)” value was “did not significantly activate NLRP3”. For the same molecule, in [9] (B16 tumor-bearing mice, 10 mg/kg every 3 days x6), the mouse body weight entry is given as “no effect”. Besides, in [9] (EMT6-bearing mice, 10 mg/kg), the blood counts entry is given as “normal blood counts”. Besides, in the data set on EMT6 tumor challenge (immunization with DMB-treated EMT6 cells), the “tumor size, times smaller than in mice immunized with MMC-treated cells” value amounted to 6 times. Also, the “mice remaining tumor-free after challenge” value with EMT6 tumor challenge is given as “Three of 12”. Besides, the “GSDMD dependence of cell death induction” value in data set [11] is reported as “depended on GSDMD”. Also, the “sensitivity to DMB-induced pyroptosis by PI uptake” value in [12] is recorded as “became sensitive to DMB-induced pyroptosis”. Moreover, at Human GSDMD [13], the dissociation constant Kd is 1100 ± 400 nM. For the same molecule, the “cell death by PI uptake, WT vs D275A GSDMD rescue” value in data set [14] is on record as “comparable cell death”. In data set [15], the “membrane localization of mCherry-tagged full-length GSDMD” value was “up to 88%”. The “BRET signal compared with DMSO control” value in data set [16] is given as “decreased the BRET signal”. Moreover, the “activation of GSDMD pore formation” value at C191A GSDMD is “not activated”.

For `CO[C@@]12[C@H](COC(N)=O)C3=C(C(=O)C(C)=C(N)C3=O)N1C[C@@H]1N[C@@H]12` [MMC, mitomycin C], the “ATP release into supernatants” value with EMT6 cells (EMT6 cells) was “did not trigger ATP release”. Further, in the data set on EMT6 cells (EMT6 cells, 20 h), the “cell death at concentration used for vaccination” value is on record as 60–70%. Moreover, in the data set with EMT6 cells, the LDH release entry was “much less and delayed LDH release”; the “potency at killing WT EMT6 cells” value is “similarly potent”. Further, the “mice remaining tumor-free after challenge” value in the data set on EMT6 tumor challenge is given as “tumors grew in all the mice”.

As for `CCN(CC)C(=S)SSC(=S)N(CC)CC` [disulfiram, reference compound], in [4] (pretreatment before DMB), the “effect of pretreatment on DMB-induced cell death” value is listed as “strongly suppressed cell death”.
